The values below are quoted from earlier work in patent US20190151234A1, “STABLE LIQUID PHARMACEUTICAL FORMULATIONS OF BENDAMUSTINE” (priority 2016, published 2019).

Structures are written as SMILES. Read-outs that look alike come from different tables or passages of the source.

For this data set the following is noted: for time stable: 0.25 mg/ml in 0.9% sodium chloride, Pharmazie 1994.

As to `Cl.Cn1c(CCCC(=O)O)nc2cc(N(CCCl)CCCl)ccc21` [Bendamustine HCl, Bendamustine hydrochloride], the time stable is, setting by setting: (at 4° C.) 5 days; (at 23° C.) 0.38 days. In addition, the “stability in aqueous solutions” value (aqueous solutions, per U.S. Pat. Nos. 8,609,707, 9,265,831) was “limited to few hours”.
